{
  "source": "patent US20100210668A1",
  "about": "“COMPOSITION AND METHOD FOR TREATMENT OR PREVENTION OF BENIGN PROSTATIC HYPERPLASIA AND LOWER URINARY TRACT SYMPTOMS” (DONG-A PHARM. CO., LTD., priority 2007, published 2010)",
  "key": {"[1]": {"system": "smooth muscle of rat prostate", "assay": "Relaxation of contracted rat prostatic tissue in organ bath, formula (I) and Silodosin", "format": "cell-based, Sprague-Dawley rat", "description": "Male Sprague-Dawley rat with 300-400 g of body weight was sacrificed and the prostate was extracted and transferred to Krebs-Henseleit buffer kept cold. The dorsolateral lobes of prostatic tissue were transected to separate prostatic tissue gland with size of 2×10 mm (4 tissues per a rat). The separated tissues were transferred to organ bath where 95% O2, and 5% CO2 were emitted and Krebs-Henseleit buffer (37° C.) was contained, both ends of the tissue gland were fixed to the bath floor and force transducer connected to polygraph(Grass Instruments) respectively.\nEach tissue was stabilized for 1 hour, and then treated by 10^−5M carbachol to induce the contraction of prostatic tissue.\nIn Table 3, data were obtained by using four (4) tissue glands were used for each concentration of the drug, and the numerical value is mean ± standard error of the percentage of contracting degree (inverse proportion to relaxation degree)."}, "[2]": {"system": "health men", "assay": "Safety Test 2: vital signs in supine position, Silodosin combination", "format": "in vivo, human", "details": "for Diastolic blood pressure mean: the values are: Diastolic blood pressure mean", "description": "(§1) The safety evaluation was performed by observing vital signs (diastolic blood pressure, pulse rate, body temperature), clinical laboratory testing, electrocardiogram, adverse reactions such as subjective symptom and objective symptom."}, "[3]": {"assay": "Safety Test 2: pharmacokinetic parameters", "format": "in vivo", "details": "male, human, plasma", "description": "as §1, with “symptom. In addition, the effect of drug-drug interaction on pharmacokinetics of the pyrazolopyrimidinone was observed.” for “symptom.”"}, "[4]": {"system": "patients", "details": "cited from earlier work"}, "[5]": {"system": "smooth muscle of rat prostate", "assay": "Relaxation of phenylephrine-contracted rat prostatic tissue in organ bath, formula (I) and Tamsulosin", "format": "cell-based, Sprague-Dawley rat", "description": "Male Sprague-Dawley rat with 300-400 g of body weight was sacrificed and the prostate was extracted and transferred to Krebs-Henseleit buffer kept cold. The dorsolateral lobes of prostatic tissue were transected to separate prostatic tissue gland with size of 2×10 mm (4 tissues per a rat). The separated tissues were transferred to organ bath where 95% O2, and 5% CO2 were emitted and Krebs-Henseleit buffer (37° C.) was contained, both ends of the tissue gland were fixed to the bath floor and force transducer connected to polygraph(Grass Instruments) respectively. Each tissue was stabilized under 0.2 standard tension for 1 hour, and then treated by 1 μM of phenylephrine to induce the contraction of prostatic tissue. […] In Table 1, data were obtained by using four (4) tissue glands were used for each concentration of the drug, and the numerical value is mean ±standard error of the percentage of contracting degree (inverse proportion to percentage of relaxation degree)."}, "[6]": {"system": "smooth muscle of rat bladder", "assay": "Relaxation of carbachol-contracted rat bladder tissue in organ bath", "format": "cell-based, Sprague-Dawley rat", "details": "for percentage of relaxation degree: L-NAME or Tamsulosin 10^−4M where combined"}, "[7]": {"system": "health men", "assay": "Safety Test 1: vital signs in supine position, Tamsulosin combination", "format": "in vivo, human", "details": "for Diastolic blood pressure mean: the values are: Diastolic blood pressure mean", "description": "as §1"}, "[8]": {"assay": "Safety Test 1: pharmacokinetics of the pyrazolopyrimidinone", "format": "in vivo", "details": "male, human, plasma", "description": "as §1, with “symptom. In addition, the effect of drug interaction on pharmacokinetics of the pyrazolopyrimidinone was observed.” for “symptom.”"}, "[9]": {"assay": "Physicochemical properties (pKa, solubility)"}, "[10]": {"biological_target": "PDE 5 (Homo sapiens, UniProt O76074)", "assay": "PDE 5 inhibition", "format": "biochemical"}, "[11]": {"assay": "Pharmacokinetic characteristics in the body", "format": "in vivo"}, "[12]": {"details": "Group B: placebo + the pyrazolopyrimidinone"}, "[13]": {"details": "Group D: administered with Tamsulosin"}},
  "note": "Where two headings read alike, the source gives them in different places.",
  "data": [
    {"smiles": "C[C@H](Cc1cc2c(c(C(N)=O)c1)N(CCCO)CC2)NCCOc1ccccc1OCC(F)(F)F", "note": "[Silodosin, reference compound]", "values": [
      {"measurement": "Contraction degree (%)", "setting": "[1]; Compound of formula (I) 0 μM, Silodosin 0.1 nM", "result": "90.8 ± 1.4", "unit": "%"},
      {"measurement": "Contraction degree (%)", "setting": "[1]; Compound of formula (I) 0 μM, Silodosin 1 nM", "result": "82.0 ± 1.7", "unit": "%"},
      {"measurement": "Contraction degree (%)", "setting": "[1]; Compound of formula (I) 0 μM, Silodosin 10 nM", "result": "46.9 ± 1.6", "unit": "%"},
      {"measurement": "Pulse rate mean", "setting": "[2]", "result": 64.2},
      {"measurement": "Diastolic blood pressure mean", "setting": "[2]", "result": 62.3, "unit": "mmHg"},
      {"measurement": "AUC(0-inf)", "setting": "[3]; AUCinf Silodosin, Group B: placebo + Silodosin", "result": "110 ± 17.6", "unit": "ng·h/mL"},
      {"measurement": "AUC(0-inf)", "setting": "[3]; AUCinf Silodosin, Group C: Silodosin + the pyrazolopyrimidinone", "result": "132 ± 25.2", "unit": "ng·h/mL"},
      {"measurement": "Cmax", "setting": "[3]; Cmax Silodosin, Group B: placebo + Silodosin", "result": "31.1 ± 7.2", "unit": "ng/mL"},
      {"measurement": "Cmax", "setting": "[3]; Cmax Silodosin, Group C: Silodosin + the pyrazolopyrimidinone", "result": "35.2 ± 7.8", "unit": "ng/mL"},
      {"measurement": "Tmax", "setting": "[3]; Tmax (h) Silodosin, Group B: placebo + Silodosin", "result": 1.4, "unit": "h"},
      {"measurement": "Tmax", "setting": "[3]; Tmax (h) Silodosin, Group C: Silodosin + the pyrazolopyrimidinone", "result": 1.7, "unit": "h"}
    ]},
    {"smiles": "COc1cc2nc(N3CCN(C(=O)C4CCCO4)CC3)nc(N)c2cc1OC", "note": "(stereo not drawn) [Terazocin]", "values": [
      {"measurement": "side effect in combination of PDE 5 inhibitors", "setting": "[4]; human, in vivo", "result": "orthostatic hypotension"}
    ]},
    {"smiles": "CCCc1nc(C)c2c(=O)[nH]c(-c3cc(S(=O)(=O)N4CCN(CC)CC4)ccc3OCC)nn12", "note": "[Vardenafil]", "values": [
      {"measurement": "blood pressure effect in combination of α-adrenergic receptor antagonist", "setting": "[4]; combination with α-adrenergic receptor antagonist", "result": "some patients shows low blood pressure"}
    ]},
    {"smiles": "CCCOc1ccc(S(=O)(=O)NCCC2CCCN2C)cc1-c1nc2c(CCC)nn(C)c2c(=O)[nH]1", "note": "(stereo not drawn) [Compound of formula (I), 5-[2-propyloxy-5-(1-methyl-2-pyrolidinylethylamidosulphonyl)phenyl]-1-methyl-propyl-1,6-dihydro-7H-pyrazolo (4,3-d)pyrimidin-7-one]", "values": [
      {"measurement": "Contraction degree (%)", "setting": "[5]; Compound of formula (I) 3 μM, Tamsulosin 0 nM, 1 μM phenylephrine", "result": "92.6 ± 2.2", "unit": "%"},
      {"measurement": "Contraction degree (%)", "setting": "[5]; Compound of formula (I) 10 μM, Tamsulosin 0 nM", "result": "77.1 ± 2.5", "unit": "%"},
      {"measurement": "Contraction degree (%)", "setting": "[5]; Compound of formula (I) 30 μM, Tamsulosin 0 nM", "result": "62.2 ± 3.1", "unit": "%"},
      {"measurement": "percentage of relaxation degree", "setting": "[6]; Compound of formula (I) 10^−4M", "result": "17.4 ± 3.7", "unit": "%"},
      {"measurement": "percentage of relaxation degree", "setting": "[6]; Compound of formula (I) 10^−4M, listed as pyrazolopyrimidinone of formula (I)", "result": "about 17.4%"},
      {"measurement": "percentage of relaxation degree", "setting": "[6]; Compound of formula (I) 10^−5M", "result": "7.2 ± 1.6", "unit": "%"},
      {"measurement": "percentage of relaxation degree", "setting": "[6]; Compound of formula (I) 10^−6M", "result": "2.0 ± 1.1", "unit": "%"},
      {"measurement": "percentage of relaxation degree", "setting": "[6]; Compound of formula (I) 10^−7M", "result": "0.0 ± 0.0", "unit": "%"},
      {"measurement": "percentage of relaxation degree", "setting": "[6]; Compound of formula (I) 10^−8M, 10^−5M carbachol", "result": "0.0 ± 0.0", "unit": "%"},
      {"measurement": "concentration at which the relaxation effect began to be represented", "setting": "[6]; administered alone", "result": "10^−6 M"},
      {"measurement": "Contraction degree (%)", "setting": "[1]; Compound of formula (I) 3 μM, Silodosin 0 nM", "result": "92.6 ± 2.2", "unit": "%"},
      {"measurement": "Contraction degree (%)", "setting": "[1]; Compound of formula (I) 10 μM, Silodosin 0 nM", "result": "77.1 ± 2.5", "unit": "%"},
      {"measurement": "Contraction degree (%)", "setting": "[1]; Compound of formula (I) 30 μM, Silodosin 0 nM", "result": "62.2 ± 3.1", "unit": "%"},
      {"measurement": "Pulse rate mean", "setting": "[7]", "result": 60.2},
      {"measurement": "Diastolic blood pressure mean", "setting": "[7]", "result": 61.6, "unit": "mmHg"},
      {"measurement": "AUC(0-inf)", "setting": "[8]; [12]", "result": "4730 ± 1260", "unit": "ng·h/mL"},
      {"measurement": "Cmax", "setting": "[8]; [12]", "result": "617 ± 169", "unit": "ng/mL"},
      {"measurement": "Tmax", "setting": "[8]; [12]", "result": 1.5, "unit": "h"},
      {"measurement": "half-life", "setting": "[8]; [12]", "result": "9.7 ± 1.7", "unit": "h"},
      {"measurement": "AUC(0-inf)", "setting": "[8]; [13]", "result": "4910 ± 1260", "unit": "ng·h/mL"},
      {"measurement": "Cmax", "setting": "[8]; [13]", "result": "624 ± 200", "unit": "ng/mL"},
      {"measurement": "Tmax", "setting": "[8]; [13]", "result": 1.1, "unit": "h"},
      {"measurement": "half-life", "setting": "[8]; [13]", "result": "9.9 ± 2.3", "unit": "h"},
      {"measurement": "Pulse rate mean", "setting": "[2]", "result": 61.4},
      {"measurement": "Diastolic blood pressure mean", "setting": "[2]", "result": 62.2, "unit": "mmHg"},
      {"measurement": "AUC(0-inf)", "setting": "[3]; Group A: placebo + the pyrazolopyrimidinone, read-out: AUCinf Ud", "result": "4820 ± 1320", "unit": "ng·h/mL"},
      {"measurement": "Cmax", "setting": "[3]; Group A: placebo + the pyrazolopyrimidinone, read-out: Cmax Ud", "result": "627 ± 158", "unit": "ng/mL"},
      {"measurement": "Tmax", "setting": "[3]; Group A: placebo + the pyrazolopyrimidinone, read-out: Tmax (h) Ud", "result": 1.5, "unit": "h"},
      {"measurement": "AUC(0-inf)", "setting": "[3]; Group C: Silodosin + the pyrazolopyrimidinone, read-out: AUCinf Ud", "result": "4940 ± 1260", "unit": "ng·h/mL"},
      {"measurement": "Cmax", "setting": "[3]; Group C: Silodosin + the pyrazolopyrimidinone, read-out: Cmax Ud", "result": "660 ± 196", "unit": "ng/mL"},
      {"measurement": "Tmax", "setting": "[3]; Group C: Silodosin + the pyrazolopyrimidinone, read-out: Tmax (h) Ud", "result": 1.3, "unit": "h"},
      {"measurement": "pKa1", "setting": "[9]", "result": "about 6.5"},
      {"measurement": "pKa2", "setting": "[9]", "result": "about 12.5"},
      {"measurement": "solubility", "setting": "[9]", "result": "improved solubility"},
      {"measurement": "solubility to acetic acid, methanol or chloroform", "setting": "[9]; acetic acid, methanol or chloroform", "result": "high solubility"},
      {"measurement": "solubility to water", "setting": "[9]; water", "result": "low solubility"},
      {"measurement": "inhibition of PDE 5", "setting": "[10]", "result": "inhibits PDE 5 strongly"},
      {"measurement": "half life in the body compared with the sildenafil-type citrate and vardenafil-type hydrochloride named", "setting": "[11]; in the body", "result": "three times longer half life"},
      {"measurement": "absorption", "setting": "[11]; in vivo", "result": "rapid absorption"},
      {"measurement": "bioavailability", "setting": "[11]; in vivo", "result": "high bioavailability"},
      {"measurement": "distribution volume in the body", "setting": "[11]; in vivo", "result": "high distribution volume"}
    ]},
    {"smiles": "CCOc1ccccc1OCCN[C@H](C)Cc1ccc(OC)c(S(N)(=O)=O)c1", "note": "[Tamsulosin, (R)-5-(2-(2-(2-ethoxyphenoxy)ethylamino)propyl)-2-methoxy benzensulfonamide, reference compound]", "values": [
      {"measurement": "Contraction degree (%)", "setting": "[5]; Compound of formula (I) 0 μM, Tamsulosin 0.25 nM", "result": "90.8 ± 1.4", "unit": "%"},
      {"measurement": "Contraction degree (%)", "setting": "[5]; Compound of formula (I) 0 μM, Tamsulosin 1 nM", "result": "78.8 ± 2.0", "unit": "%"},
      {"measurement": "Contraction degree (%)", "setting": "[5]; Compound of formula (I) 0 μM, Tamsulosin 4 nM", "result": "43.6 ± 4.2", "unit": "%"},
      {"measurement": "Pulse rate mean", "setting": "[7]", "result": 57.7},
      {"measurement": "Diastolic blood pressure mean", "setting": "[7]", "result": 63, "unit": "mmHg"},
      {"measurement": "side effect in combination of PDE 5 inhibitors", "setting": "[4]; administered in combination of PDE 5 inhibitors", "result": "orthostatic hypotension"}
    ]}
  ]
}
